Test system: HBV
Test: In vitro anti-HBV activity in HepG2.2.15 cell line (intracellular HBV DNA by qPCR at 1 μM)
Type: cell-based
Conditions: Hepatitis B virus, 144 h; HepG2.2.15 cells, 1 μM compound, 6 days, intracellular HBV DNA as percentage compared to vehicle control (0.5% DMSO)
Experimental: The stable transfected HBV cell line, called HepG2.2.15 cells was a valuable model with high reproducibility and commonly used for drug screening. To identify the anti-HBV activity, HepG2.2.15 cells were seeded at 5×10^5 cells/well with high glucose Dulbecco's modified Eagle medium (DMEM) containing 10% heat inactivated fetal bovine serum (FBS), 300 mg/L G418, non-essential amino acids (NEAA) 100 units/ml Antibiotic-Antimycotic, and allowed to stand for an overnight in an incubator set at 37° C. and 5% C02. HepG2.2.15 cells in each well were treated with the medium containing a compound (1 μM with 0.5% dimethyl sulfoxide (DMSO final concentration) for three days in the incubator. After that the medium was removed and fresh medium containing the compound was added to the cells for another 3 days. After 6 days of treatment, intracellular HBV DNA was extracted and determined by using quantitative real-time PCR (qPCR) technique with specific primers. Intrahepatic HBV DNA viral load was reported as percentage compared to vehicle control (0.5% DMSO) as shown in Table A.
“B” means % ranging between 80 and 90; “C” means % ranging between 70 and 80; “D” means % ranging between 60 and 70; “E” means % ranging between 45 and 60, “F” means %<45.

| SMILES | activity at 1 µM [%] |
| --- | --- |
| Cc1ncccc1-c1ccc(C(=O)N2CC[C@H](C(=O)Nc3cc(F)c(F)c(F)c3)C2)[nH]1 [Example 80, (S)-1-(5-(2-methylpyridin-3-yl)-1H-pyrrole-2-carbonyl)-N-(3,4,5-trifluorophenyl) pyrrolidine-3-carboxamide] | < 45 |
| Cc1ncccc1-c1ccc(C(=O)N2CC[C@H](C(=O)Nc3ccc(F)c(C#N)c3)C2)[nH]1 [Example 81, (S)—N-(3-cyano-4-fluorophenyl)-1-(5-(2-methylpyridin-3-yl)-1H-pyrrole-2-carbonyl) pyrrolidine-3-carboxamide] | 45 to 60 |
| O=C(Nc1cc(F)c(F)c(F)c1)[C@H]1CCN(C(=O)c2ccc(-c3cccnc3)[nH]2)C1 [Example 82] | 45 to 60 |
| C[C@H]1[C@@H](C(=O)Nc2cc(F)c(F)c(F)c2)CCN1C(=O)c1ccc(-c2cnccn2)[nH]1 [Example 84, (2S,3S)-2-methyl-1-(5-(pyrazin-2-yl)-1H-pyrrole-2-carbonyl)-N-(3,4,5-trifluorophenyl) pyrrolidine-3-carboxamide] | > 90 |
| Cc1ncc(-c2ccc(C(=O)N3CC[C@H](C(=O)Nc4cc(F)c(F)c(F)c4)C3)[nH]2)cn1 [Example 86, (S)-1-(5-(2-methylpyrimidin-5-yl)-1H-pyrrole-2-carbonyl)-N-(3,4,5-trifluorophenyl)pyrrolidine-3-carboxamide] | < 45 |
| Cc1n[nH]c(C)c1-c1ccc(C(=O)N2CC[C@H](C(=O)Nc3cc(F)c(F)c(F)c3)C2)[nH]1 [Example 87, (S)-1-(5-(3,5-dimethyl-1H-pyrazol-4-yl)-1H-pyrrole-2-carbonyl)-N-(3,4,5-trifluorophenyl) pyrrolidine-3-carboxamide] | < 45 |
| Cc1nn(C)c(C)c1-c1ccc(C(=O)N2CC[C@H](C(=O)Nc3cc(F)c(F)c(F)c3)C2)[nH]1 [Example 88, (S)—N-(3,4,5-trifluorophenyl)-1-(5-(1,3,5-trimethyl-1H-pyrazol-4-yl)-1H-pyrrole-2-carbonyl) pyrrolidine-3-carboxamide] | < 45 |
| Cc1ncncc1-c1ccc(C(=O)N2CC[C@H](C(=O)Nc3cc(F)c(F)c(F)c3)C2)[nH]1 [Example 89, (S)-1-(5-(4-methylpyrimidin-5-yl)-1H-pyrrole-2-carbonyl)-N-(3,4,5-trifluorophenyl) pyrrolidine-3-carboxamide] | < 45 |
| O=C(Nc1cc(F)c(F)c(F)c1)[C@H]1CCN(C(=O)c2ccc(-c3ccccn3)[nH]2)C1 [Example 90, (S)-1-(5-(pyridin-2-yl)-1H-pyrrole-2-carbonyl)-N-(3,4,5-trifluorophenyl)pyrrolidine-3-carboxamide] | 70 to 80 |
| Cn1ccnc1-c1ccc(C(=O)N2CC[C@H](C(=O)Nc3cc(F)c(F)c(F)c3)C2)[nH]1 [Example 91, (S)-1-(5-(1-methyl-1H-imidazol-2-yl)-1H-pyrrole-2-carbonyl)-N-(3,4,5-trifluorophenyl)pyrrolidine-3-carboxamide] | < 45 |
| Cc1nccnc1-c1ccc(C(=O)N2CC[C@H](C(=O)Nc3cc(F)c(F)c(F)c3)C2)[nH]1 [Example 92, (S)-1-(5-(3-methylpyrazin-2-yl)-1H-pyrrole-2-carbonyl)-N-(3,4,5-trifluorophenyl)pyrrolidine-3-carboxamide] | 45 to 60 |
| Cc1nccnc1-c1ccc(C(=O)N2CC[C@H](C(=O)Nc3cc(F)c(F)c(F)c3)[C@@H]2C)[nH]1 [Example 93, (2S,3S)-2-methyl-1-(5-(3-methylpyrazin-2-yl)-1H-pyrrole-2-carbonyl)-N-(3,4,5-trifluorophenyl) pyrrolidine-3-carboxamide] | < 45 |
| Cc1ncnc(C)c1-c1ccc(C(=O)N2CC[C@H](C(=O)Nc3ccc(F)c(C#N)c3)C2)[nH]1 [Example 94, (S)—N-(3-cyano-4-fluorophenyl)-1-(5-(4,6-dimethylpyrimidin-5-yl)-1H-pyrrole-2-carbonyl)pyrrolidine-3-carboxamide] | 60 to 70 |

Reference: patent US20230391752A1, “PYRROLIDINE-3-CARBOXAMIDE DERIVATIVES AND RELATED USES” (Chulalongkorn University, priority 2020, published 2023)
